Laboratory results from BigSolDB 2.1.

O=C1CCc2cc(O)ccc2N1
solubility (mole fraction)
Conditions | in THF | in acetonitrile | in ethanol | in ethyl acetate | in isobutanol | in isopropanol | in methanol | in methyl acetate | in n-butanol | in n-propanol
278.15 K | 0.00248 | 0.000292 | 0.00214 | 0.000666 | 0.00114 | 0.00186 | 0.00224 | 0.00155 | 0.00181 | 0.00173
283.15 K | 0.00277 | 0.000345 | 0.00242 | 0.000723 | 0.00134 | 0.00226 | 0.0027 | 0.00172 | 0.00201 | 0.00202
288.15 K | 0.00307 | 0.000403 | 0.00281 | 0.000792 | 0.00162 | 0.0026 | 0.00309 | 0.00188 | 0.00232 | 0.00236
293.15 K | 0.00346 | 0.00048 | 0.00324 | 0.00086 | 0.00192 | 0.003 | 0.00356 | 0.00209 | 0.00269 | 0.0027
298.15 K | 0.00383 | 0.000576 | 0.00373 | 0.000927 | 0.00229 | 0.00346 | 0.00412 | 0.00231 | 0.00309 | 0.00314
303.15 K | 0.00424 | 0.000668 | 0.00431 | 0.000992 | 0.00268 | 0.00395 | 0.0048 | 0.00257 | 0.00357 | 0.00364
308.15 K | 0.00473 | 0.000784 | 0.00496 | 0.00108 | 0.00316 | 0.00471 | 0.00551 | 0.00287 | 0.00409 | 0.00419
313.15 K | 0.00526 | 0.000887 | 0.00574 | 0.00115 | 0.00378 | 0.0055 | 0.00648 | 0.00316 | 0.00473 | 0.00482
318.15 K | 0.00591 | 0.00102 | 0.00664 | 0.00122 | 0.00427 | 0.00631 | 0.00745 | 0.00352 | 0.00543 | 0.00554
323.15 K | 0.00651 | 0.00118 | 0.00761 | 0.00131 | 0.00493 | 0.00721 | 0.00838 | 0.00391 | 0.00623 | 0.00641
